Where a SMILES comes first, the peptide text is derived from it. Bridges are numbered along the chain shown (N, C = ends). [ ]: non-standard residue; d: D form. R8 = C=CCCCCCC[C@@](C)(N)C(=O)O; S5 = C=CCCC[C@](C)(N)C(=O)O
What was measured:
[1] = test system: C. albicans; experiment: C. elegans survival assay after infection with C. albicans; assay type: in vivo, Candida albicans; conditions: 1 nM peptide; for Median survival: C. albicans infected C. elegans, 25°C, experiment with 12aa (i+7 staple)
Experimental: C. elegans infection assays were performed with strain glp-4(bn2);sek-1(km-4) ([40]), which were propagated and maintained on E. coli strain OP50 grown as lawns on nematode growth medium (NGM) agar using standard techniques ([58]). To synchronize the nematodes to the same stage of growth, L1 stage worms on non-starved plates were washed off, filtered through a 10- µm filter (pluriSelect, pluriStrainer 10 µm), harvested by centrifugation at 1,500 rpm for 60 seconds, transferred to OP50-seeded plates, and grown to the L4 stage.
To prepare the infection plates, fungal strains were grown in BHI broth overnight at 30°C with agitation. About 500 µL of the culture was plated onto BHI solid medium containing gentamycin (10 µg/mL) and grown for 24 hrs at 37°C. The synchronized L4 C. elegans nematodes were then washed off the OP50 plates in 2 mL sterile M9 buffer and washed once, centrifuging at 800 rpm for 30 seconds to collect the nematodes. Nematodes were infected by placing them on the fungal lawn for 4 hrs at 25°C. Following this exposure, they were washed off the plate and washed four times with 2 mL of sterile M9. The nematodes were then pipetted (~30 per well with two wells per condition for a total of ~60 worms assayed) into six-well plates with 2 mL of the liquid medium (20% BHI broth and 80% M9) containing 1 nM of the peptide. A DMSO-untreated control was used with each experiment. Plates were incubated at 25°C, and worm death was scored daily. Kaplan–Meier survival curves were generated and analyzed, as described in the quantification and statistical analysis section.

[2] = test system: C. albicans biofilm; experiment: C. albicans biofilm assay in artificial saliva medium (crystal violet); assay type: cell-based, Candida albicans; conditions: 10 nM peptide
Experimental: Briefly, C. albicans strains were grown in YPD broth for 18 hrs at 30°C with agitation and then sub-cultured for 4 hrs in the same conditions. Cells were then collected by centrifugation at 16,000 x g for 30 s, washed twice in PBS, and adjusted to a concentration of 5 × 10^6 cells/mL (measured with Countess II, Life Technologies) in PBS treated with the 10 nM peptide. The cell suspension was incubated for 1 hr at 30°C with agitation at 200 rpm. Then, 100 µL of the cell suspension was added to wells of a 96-well tissue culture-treated polystyrene plate (Falcon). The PBS and unadhered cells were removed and then replaced with 200 µL of the artificial saliva medium ([15], [60]) containing the 10 nM peptide. The plate was then incubated at 37°C for 48 h.
After incubation, the medium was gently removed along with any planktonic cells. The biofilm was then stained for 20 min with 50 µL of 0.08% crystal violet solution (Sigma). The crystal violet stain was then aspirated, and the wells were washed four times with sterile water. Biofilms were de-stained with 200 µL of 200 proof ethanol for 20 min, and 100 µL of the ethanol solution was transferred to a new well for analysis.

In the case of `CC(C)C[C@@H]1NC(=O)[C@H](C)NC(=O)[C@H](CC(C)C)NC(=O)[C@H](CCC(N)=O)NC(=O)CNC(=O)[C@@](C)(NC(=O)[C@@H](N)C(C)C)CCC/C=C\CCCCCC[C@](C)(C(=O)N[C@H](C(=O)N[C@@H](CCC(N)=O)C(=O)N[C@@H](CS)C(N)=O)C(C)C)NC(=O)[C@H](Cc2c[nH]c3ccccc23)NC1=O` [12aa (i+7 staple)] (H-V[S5]GQLALW[R8]VQC-NH2; staple (Z) 2-9), the “Protection of C. elegans from C. albicans infection relative to parent peptide” value ([1]; survival curves, Mantel–Cox log rank) is reported as “remained as effective as the original”, the “Median survival” value ([1]; trial 1) is reported as 12 days and the “Median survival” value ([1]; trial 2) is reported as 11.5 days. The “Antifungal activity in biofilm assay” value [2] was “fully active”.

— paper PMC11077972, “Optimization of the antifungal properties of the bacterial peptide EntV by variant analysis” (mBio, 2024)
